How the values were obtained:
kochia [1] = assay: Test C pre-/postemergence herbicide test; type: in vivo, Kochia scoparia
Description: Seeds of plant species selected from blackgrass (Alopecurus myosuroides), ryegrass, Italian (Italian ryegrass, Lolium multiflorum), wheat (winter wheat, Triticum aestivum), galium (catchweed bedstraw, Galium aparine), corn (Zea mays), crabgrass, large (large crabgrass, Digitaria sanguinalis), foxtail, giant (giant foxtail, Setaria faberii), johnsongrass (Sorghum halepense), lambsquarters (Chenopodium album), morningglory (Ipomoea coccinea), nutsedge, yellow (yellow nutsedge, Cyperus esculentus), pigweed (Amaranthus retroflexus), ragweed (common ragweed, Ambrosia elatior), soybean (Glycine max), barnyardgrass (Echinochloa crus-galli), oilseed rape (Brassica napus), waterhemp (common waterhemp, Amaranthus rudis), kochia (Kochia scoparia), oat, wild (wild oat, Avena fatua), surinam grass (Brachiaria decumbens), foxtail, green (green foxtail, Setaria viridis), goosegrass (Eleusine indica), bromegrass, downy (downy bromegrass, Bromus tectorum), nightshade (eastern black nightshade, Solanum ptycanthum), cocklebur (common cocklebur, Xanthium strumarium), cupgrass, woolly (woolly cupgrass, Eriochloa villosa), bermudagrass (Cynodon dactylon), sunflower, (common oilseed sunflower, Helianthus annuus), Russian thistle (Salsola kali) and velvetleaf (Abutilon theophrasti) were planted into a blend of loam soil and sand and treated preemergence with test chemicals formulated in a non-phytotoxic solvent mixture which included a surfactant. At the same time, plants selected from these crop and weed species and also barley (winter barley, Hordeum vulgare), […]), chickweed (common chickweed, Stellaria media), deadnettle (henbit deadnettle, Lamium amplexicaule), and canarygrass (littleseed canarygrass, Phalaris minor) were planted in pots containing Redi-Earth® planting medium (Scotts Company, 14111 Scottslawn Road, Marysville, Ohio 43041) comprising spaghnum peat moss, vermiculite, wetting agent and starter nutrients and treated with postemergence applications of test chemicals formulated in the same manner. Plants ranged in height from 2 to 18 cm (1- to 4-leaf stage) for postemergence treatments. Treated plants and controls were maintained in a greenhouse for 13 to 15 days, after which time all species were compared to controls and visually evaluated. Plant response ratings, summarized in Table C, are based on a scale of 0 to 100 where 0 is no effect and 100 is complete control. A dash (-) response means no test result.

barnyardgrass = assay: Test C flooded paddy test; type: in vivo, Echinochloa crus-galli; settings: Flood
Procedure, shortened: (§1)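 Plants grown to the 2-leaf stage; pots flooded to 3 cm above soil and compound applied directly into the paddy water, depth kept throughout. Greenhouse 13 to 15 days, then visual rating vs untreated controls on 0–100 scale (0 no effect, 100 complete control); dash means no result.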

ducksalad = assay: Test C flooded paddy test; type: in vivo, Heteranthera limosa; settings: Flood
Procedure, shortened: as §1

sedge, umbrella = assay: Test C flooded paddy test; type: in vivo, Cyperus difformis; settings: Flood
Procedure, shortened: as §1

chickweed = assay: Test C postemergence herbicide test; type: in vivo, Stellaria media
Procedure, shortened: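 Greenhouse pot plants at 2 to 18 cm height (1- to 4-leaf stage) received a postemergence application of formulated test chemical. Visual ratings against untreated controls were made after 13 to 15 days, on a 0 (no effect) to 100 (complete control) scale.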

ryegrass, Italian = assay: Test A pre-/postemergence herbicide test; type: in vivo, Lolium multiflorum
Procedure, shortened: (§2)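 Greenhouse pot test with pre- and postemergence application of surfactant-containing solvent formulations. Postemergence plants were 2–10 cm, one- to two-leaf stage. Response scored visually after ~10 days, 0 (no effect) to 100 (complete control).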

kochia [2] = assay: Test A pre-/postemergence herbicide test; type: in vivo, Kochia scoparia
Procedure, shortened: as §2

[3] = Postemergence, 31 g ai/ha, scale 0 (no effect) to 100 (complete control)
[4] = Postemergence, 62 g ai/ha, scale 0 to 100 (0 no effect, 100 complete control)
[5] = Postemergence, 125 g ai/ha, scale 0 to 100 (0 no effect, 100 complete control)
[6] = Postemergence, 250 g ai/ha, scale 0 to 100 (0 no effect, 100 complete control)
[7] = 125 g ai/ha, scale of 0 to 100 where 0 is no effect and 100 is complete control, 13 to 15 days
[8] = 31 g ai/ha, scale 0 (no effect) to 100 (complete control)
[9] = 62 g ai/ha, scale 0 to 100 (0 no effect, 100 complete control)
[10] = 125 g ai/ha, scale 0 to 100 (0 no effect, 100 complete control)
[11] = 250 g ai/ha, scale 0 to 100 (0 no effect, 100 complete control)
[12] = Postemergence, 125 g ai/ha, 0 to 100 scale, 0 no effect, 100 complete control
[13] = Postemergence, 500 g ai/ha, 0 to 100 scale (0 no effect, 100 complete control)
[14] = Preemergence, 125 g ai/ha, visual rating on 0 to 100 scale (0 no effect, 100 complete control)
[15] = preemergence, 500 g ai/ha, 0 to 100 scale
[16] = 125 g ai/ha, visual rating, 0 to 100 scale, 0 no effect, 100 complete control, approximately 10 days, preemergence
[17] = Postemergence, 125 g ai/ha, 0 to 100 scale, 0 is no effect, 100 is complete control
[18] = preemergence, 500 g ai/ha, 0 to 100 scale, 0 is no effect and 100 is complete control
[19] = Postemergence, 31 g ai/ha, scale 0 to 100 (0 no effect, 100 complete control)
[20] = Postemergence, 62 g ai/ha, scale 0 (no effect) to 100 (complete control)
[21] = 31 g ai/ha, scale 0 to 100 (0 no effect, 100 complete control)
[22] = 62 g ai/ha, scale 0 (no effect) to 100 (complete control)
[23] = Preemergence, 62 g ai/ha, scale 0 to 100
[24] = Preemergence, 125 g ai/ha, scale 0 to 100 (0 no effect, 100 complete control)
[25] = 31 g ai/ha, scale of 0 to 100 where 0 is no effect and 100 is complete control, 13 to 15 days
[26] = 62 g ai/ha, scale of 0 to 100 where 0 is no effect and 100 is complete control, 13 to 15 days
[27] = Postemergence, 125 g ai/ha, visual rating on 0 to 100 scale (0 no effect, 100 complete control), approx. 10 days
[28] = Preemergence, 125 g ai/ha, 0 to 100 scale where 0 is no effect and 100 is complete control
[29] = Preemergence, 500 g ai/ha, visual rating on 0 to 100 scale (0 no effect, 100 complete control)

Row | Compound | Plant response rating, Kochia (kochia [1]; [3]) | Plant response rating, Kochia (kochia [1]; [4]) | Plant response rating, Kochia (kochia [1]; [5]) | Plant response rating, Kochia (kochia [1]; [6]) | Plant response rating, Barnyardgrass (barnyardgrass; [7]) | Plant response rating, Barnyardgrass (barnyardgrass; 250 g ai/ha, scale 0 to 100) | Plant response rating, Ducksalad (ducksalad; [7]) | Plant response rating, Ducksalad (ducksalad; 250 g ai/ha, scale 0 to 100) | Plant response rating, Sedge, Umbrella (sedge, umbrella; [7]) | Plant response rating, Sedge, Umbrella (sedge, umbrella; 250 g ai/ha, scale 0 to 100) | Plant response rating, Chickweed (chickweed; [8]) | Plant response rating, Chickweed (chickweed; [9]) | Plant response rating, Chickweed (chickweed; [10]) | Plant response rating, Chickweed (chickweed; [11]) | other results
1 | O=C1NCC(c2ccc(F)c(F)c2)C1C(=O)Nc1cccc(F)c1F (racemic) [Compound 101] | 45 | 30 | 50 | 50 | 20 | 55 | 90 | 95 | 0 | 0 | 35 | 60 | 70 | 80 | Plant response rating, Barnyardgrass (barnyardgrass; 500 g ai/ha, scale 0 to 100): 60; Plant response rating, Barnyardgrass (barnyardgrass; 1000 g ai/ha, scale 0 to 100): 75; Plant response rating, Ducksalad (ducksalad; 500 g ai/ha, scale 0 to 100): 100; Plant response rating, Ducksalad (ducksalad; 1000 g ai/ha, scale 0 to 100): 100; Plant response rating, Sedge, Umbrella (sedge, umbrella; 500 g ai/ha, scale 0 to 100): 0; Plant response rating, Sedge, Umbrella (sedge, umbrella; 1000 g ai/ha, scale 0 to 100): 0
2 | Cc1ccccc1NC(=O)C1C(=O)NCC1c1cccc(C(F)(F)F)c1 (racemic) [Compound 109] | 0 | 0 | 0 | 0 | – | – | – | – | – | – | 0 | 0 | 0 | 0 | Plant response rating, Ryegrass, Italian (ryegrass, Italian; [12]): 20; Plant response rating, Ryegrass, Italian (ryegrass, Italian; [13]): 30; Ryegrass, Italian plant response rating (ryegrass, Italian; [14]): 0; Plant response rating, Ryegrass, Italian (ryegrass, Italian; [15]): 50; Plant response rating, Kochia (kochia [2]; [12]): 0; Plant response rating, Kochia (kochia [2]; [13]): 0; Kochia plant response rating (kochia [2]; [14]): 0; Plant response rating, Kochia (kochia [2]; [15]): 0
3 | O=C1NCC(c2ccc(C(F)(F)F)cc2)C1C(=O)Nc1cccc(F)c1F (racemic) [Compound 202] | – | – | 80 | 80 | – | – | – | – | – | – | – | – | 85 | 85 | Plant response rating, Ryegrass, Italian (ryegrass, Italian; [16]): 60; Plant response rating, Ryegrass, Italian (ryegrass, Italian; [17]): 30; Ryegrass, Italian plant response rating (0 to 100 scale, 0 is no effect, 100 is complete control) (ryegrass, Italian; Postemergence, 500 g ai/ha): 40; Plant response rating, Ryegrass, Italian (ryegrass, Italian; [18]): 60; Plant response rating, Kochia (kochia [2]; [16]): 70; Plant response rating, Kochia (kochia [2]; [17]): 80; Kochia plant response rating (0 to 100 scale, 0 is no effect, 100 is complete control) (kochia [2]; Postemergence, 500 g ai/ha): 90; Plant response rating, Kochia (kochia [2]; [18]): 80; Plant response rating, Kochia (kochia [1]; [19]): 70; Plant response rating, Kochia (kochia [1]; [20]): 75; Plant response rating, Chickweed (chickweed; [21]): 80; Plant response rating, Chickweed (chickweed; [22]): 80
4 | O=C1NCC(c2ccc(F)c(F)c2)C1C(=O)Nc1cccc(F)c1F (stereo not drawn) [Compound 17, N-(2,3-difluorophenyl)-4-(3,4-difluorophenyl)-2-oxo-3-pyrrolidinecarboxamide] | 0 | 0 | 0 | 5 | 20 | 25 | 100 | 100 | 0 | 40 | 0 | 0 | 0 | 10 | Plant response rating, Kochia (kochia [1]; [23]): 50; Plant response rating, Kochia (kochia [1]; [24]): 60; Plant response rating, Barnyardgrass (barnyardgrass; [25]): 0; Plant response rating, Barnyardgrass (barnyardgrass; [26]): 0; Plant response rating, Ducksalad (ducksalad; [25]): 40; Plant response rating, Ducksalad (ducksalad; [26]): 80; Plant response rating, Sedge, Umbrella (sedge, umbrella; [25]): 0; Plant response rating, Sedge, Umbrella (sedge, umbrella; [26]): 0
5 | O=C1NCC(c2ccc(Cl)c(F)c2)C1C(=O)Nc1cccc(F)c1F (stereo not drawn) [Compound 52] | 30 | 35 | 40 | 50 | 0 | 0 | 75 | 95 | 50 | 75 | – | 25 | 45 | 60 | Plant response rating, Kochia (kochia [1]; [23]): 10; Plant response rating, Kochia (kochia [1]; [24]): 15; Plant response rating, Barnyardgrass (barnyardgrass; [25]): 0; Plant response rating, Barnyardgrass (barnyardgrass; [26]): 0; Plant response rating, Ducksalad (ducksalad; [25]): 40; Plant response rating, Ducksalad (ducksalad; [26]): 40; Plant response rating, Sedge, Umbrella (sedge, umbrella; [25]): 0; Plant response rating, Sedge, Umbrella (sedge, umbrella; [26]): 40
6 | O=C1NCC(c2ccc(C(F)(F)F)cc2)C1C(=O)Nc1ccccc1F (stereo not drawn) [Compound 79, N-(2-fluorophenyl)-2-oxo-4-[4-(trifluoromethyl)phenyl]-3-pyrrolidinecarboxamide] | 5 | 55 | 55 | – | – | – | – | – | – | – | 60 | 80 | 90 | 90 | –
7 | O=C1NCC(c2cccc(Br)c2)C1C(=O)Nc1ccc(F)c(F)c1F (stereo not drawn) [Compound 310] | – | – | – | 80 | – | – | – | – | – | – | – | – | 90 | 85 | Plant response rating, Ryegrass, Italian (ryegrass, Italian; [27]): 30; Plant response rating, Ryegrass, Italian (ryegrass, Italian; [13]): 30; Plant response rating, Ryegrass, Italian (ryegrass, Italian; [28]): 30; Ryegrass, Italian plant response rating (ryegrass, Italian; [29]): 40; Plant response rating, Kochia (kochia [2]; [27]): 30; Plant response rating, Kochia (kochia [2]; [13]): 30; Plant response rating, Kochia (kochia [2]; [28]): 30; Kochia plant response rating (kochia [2]; [29]): 70; Plant response rating, Kochia (kochia [1]; [19]): 40; Plant response rating, Kochia (kochia [1]; [20]): 50; Plant response rating, Chickweed (chickweed; [21]): 20; Plant response rating, Chickweed (chickweed; [22]): 45

From patent publication US10294202B2, “Pyrrolidinones as herbicides” (FMC Corporation, priority 2013, dated 2019)
